From patent US8653263B2 (Janssen Pharmaceutica, priority 2009, dated 2014)
Like-named read-outs stand apart in the source and are kept apart here.

Target: human orexin-2 receptor (Homo sapiens (Human), UniProt O43614)
Assay: Human orexin 2 receptor radioligand binding ([3H]-EMPA competition)
Conditions: read-out: OR 2 Ki
[1] = HEK293 cells stably expressing human orexin-2 receptor, [3H]-EMPA 5 nM final, apparent Ki=IC50/(1+C/Kd), Kd=2 nM

Chain of human orexin-2 receptor (O43614 whole entry): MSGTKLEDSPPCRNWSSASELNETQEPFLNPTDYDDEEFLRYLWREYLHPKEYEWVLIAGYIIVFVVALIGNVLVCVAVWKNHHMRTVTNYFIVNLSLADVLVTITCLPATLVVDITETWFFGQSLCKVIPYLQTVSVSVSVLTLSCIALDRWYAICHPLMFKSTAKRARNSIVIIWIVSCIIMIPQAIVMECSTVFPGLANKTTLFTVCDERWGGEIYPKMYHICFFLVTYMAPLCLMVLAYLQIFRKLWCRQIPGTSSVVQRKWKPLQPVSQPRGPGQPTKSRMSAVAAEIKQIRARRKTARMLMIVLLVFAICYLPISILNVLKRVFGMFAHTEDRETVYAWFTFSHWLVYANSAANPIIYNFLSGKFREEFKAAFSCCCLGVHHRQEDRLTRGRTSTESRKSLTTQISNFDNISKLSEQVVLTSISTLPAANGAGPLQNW

Ki [1] [nM] | Ki [nM] | Structure (SMILES)
38 | – | Cc1cc(C)nc(N2CC3CN(C(=O)c4c(F)cccc4-c4nc(C)no4)CC3C2)n1 (centres unmarked) [Example 315, 2-(4,6-Dimethylpyrimidin-2-yl)-5-{[2-fluoro-6-(3-methyl-1,2,4-oxadiazol-5-yl)phenyl]carbonyl}octahydropyrrolo[3,4-c]pyrrole]
5 | – | Cc1noc(-c2ccccc2C(=O)N2CC3CN(c4nc(C)c(Cl)c(C)n4)CC3C2)n1 (centres unmarked) [Example 318, 2-(5-Chloro-4,6-dimethylpyrimidin-2-yl)-5-{[2-(3-methyl-1,2,4-oxadiazol-5-yl)phenyl]carbonyl}octahydropyrrolo[3,4-c]pyrrole]
18 | – | Cc1noc(-c2ccccc2C(=O)N2CC3CN(c4nc(C)c5c(n4)CCC5)CC3C2)n1 (centres unmarked) [Example 319, 4-Methyl-2-[5-{[2-(3-methyl-1,2,4-oxadiazol-5-yl)phenyl]carbonyl}hexahydropyrrolo[3,4-c]pyrrol-2(1H)-yl]-6,7-dihydro-5H-cyclopenta[d]pyrimidine]
4 | – | Cc1nc(N2CC3CN(C(=O)c4ccccc4-c4ncn(C)n4)CC3C2)nc(C)c1Cl (centres unmarked) [Example 320, 2-(5-Chloro-4,6-dimethylpyrimidin-2-yl)-5-{[2-(1-methyl-1H-1,2,4-triazol-3-yl)phenyl]carbonyl}octahydropyrrolo[3,4-c]pyrrole]
– | 29 | Cc1nc(N2CC3CN(C(=O)c4ccccc4-c4ncn(C)n4)CC3C2)ncc1Cl (centres unmarked) [Example 321, 2-(5-Chloro-4-methylpyrimidin-2-yl)-5-{[2-(1-methyl-1H-1,2,4-triazol-3-yl)phenyl]carbonyl}octahydropyrrolo[3,4-c]pyrrole]
10 | – | CCc1c(C)nc(N2CC3CN(C(=O)c4ccccc4-c4ncn(C)n4)CC3C2)nc1C (centres unmarked) [Example 322, 2-(5-Ethyl-4,6-dimethylpyrimidin-2-yl)-5-{[2-(1-methyl-1H-1,2,4-triazol-3-yl)phenyl]carbonyl}octahydropyrrolo[3,4-c]pyrrole]
25 | – | Cc1nc(N2CC3CN(C(=O)c4ncccc4-n4nccn4)CC3C2)nc(C)c1C (centres unmarked) [Example 323, 2-{[3-(2H-1,2,3-Triazol-2-yl)pyridin-2-yl]carbonyl}-5-(4,5,6-trimethylpyrimidin-2-yl)octahydropyrrolo[3,4-c]pyrrole]
16 | – | Cc1nc(N2CC3CN(C(=O)c4ncccc4-n4nccn4)CC3C2)nc(C)c1F (centres unmarked) [Example 325, 2-(5-Fluoro-4,6-dimethylpyrimidin-2-yl)-5-{[3-(2H-1,2,3-triazol-2-yl)pyridin-2-yl]carbonyl}octahydropyrrolo[3,4-c]pyrrole]
8 | – | Cc1cc(C)nc(N2CC3CN(C(=O)c4cccc5c4-c4ccccc4C5)CC3C2)n1 (centres unmarked) [Example 326, 2-(4,6-Dimethylpyrimidin-2-yl)-5-(9H-fluoren-4-ylcarbonyl)octahydropyrrolo[3,4-c]pyrrole]
103 | – | Cc1cc(C)nc(N2CC3CN(C(=O)c4c(-n5nccn5)ccc5c4OCO5)CC3C2)n1 (centres unmarked) [Example 327, [5-(4,6-Dimethyl-pyrimidin-2-yl)-hexahydro-pyrrolo[3,4-c]pyrrol-2-yl]-(5-[1,2,3]triazol-2-yl-benzo[1,3]dioxol-4-yl)methanone]
112 | – | Cc1cc(C)nc(N2CC3CN(C(=O)c4cccc5cccc(-n6nccn6)c45)CC3C2)n1 (centres unmarked) [Example 328, [5-(4,6-Dimethyl-pyrimidin-2-yl)-hexahydro-pyrrolo[3,4-c]pyrrol-2-yl]-(8-[1,2,3]triazol-2-yl-naphthalen-1-yl)-methanone]
10000 | – | COc1ccc(C(C)(C)C)cc1C(=O)N1CC2CN(c3nc(C)cc(C)n3)CC2C1 (centres unmarked) [Example 330, (5-tert-Butyl-2-methoxy-phenyl)-[5-(4,6-dimethyl-pyrimidin-2-yl)-hexahydro-pyrrolo[3,4-c]pyrrol-2-yl]-methanone]
277 | – | Cc1cc(C)nc(N2CC3CN(C(=O)c4cccc5c4OCCCO5)CC3C2)n1 (centres unmarked) [Example 334, (3,4-Dihydro-2H-benzo[b][1,4]dioxepin-6-yl)-[5-(4,6-dimethyl-pyrimidin-2-yl)-hexahydro-pyrrolo[3,4-c]pyrrol-2-yl]-methanone]
59 | – | Cc1cccc(-c2cc(F)ccc2C(=O)N2CC3CN(c4nc(C)cc(C)n4)CC3C2)n1 (centres unmarked) [Example 335, (5-(4,6-dimethylpyrimidin-2-yl)hexahydropyrrolo[3,4-c]pyrrol-2(1H)-yl)(4-fluoro-2-(6-methylpyridin-2-yl)phenyl)methanone]
288 | – | Cc1cc(C)nc(N2CC3CN(C(=O)c4ccc(C)nc4-n4ccnn4)CC3C2)n1 (centres unmarked) [Example 336, [5-(4,6-Dimethyl-pyrimidin-2-yl)-hexahydro-pyrrolo[3,4-c]pyrrol-2-yl]-(6-methyl-2-[1,2,3]triazol-1-yl-pyridin-3-yl)-methanone]
513 | – | Cc1cc(C)nc(N2CC3CN(C(=O)c4ccc5ccccc5c4Br)CC3C2)n1 (centres unmarked) [Example 337, (1-Bromo-naphthalen-2-yl)-[5-(4,6-dimethyl-pyrimidin-2-yl)-hexahydro-pyrrolo[3,4-c]pyrrol-2-yl]-methanone]
1600 | – | COc1cc2ccccc2cc1C(=O)N1CC2CN(c3nc(C)cc(C)n3)CC2C1 (centres unmarked) [Example 338, [5-(4,6-Dimethyl-pyrimidin-2-yl)-hexahydro-pyrrolo[3,4-c]pyrrol-2-yl]-(3-methoxy-naphthalen-2-yl)-methanone]
1520 | – | COc1c(C(=O)N2CC3CN(c4nc(C)cc(C)n4)CC3C2)ccc2ccccc12 (centres unmarked) [Example 340, [5-(4,6-Dimethyl-pyrimidin-2-yl)-hexahydro-pyrrolo[3,4-c]pyrrol-2-yl]-(1-methoxy-naphthalen-2-yl)-methanone]

Ki [1] [nM] | Ki [nM] | Structure (SMILES)
36 | – | Cc1ccnc(-c2cc(F)ccc2C(=O)N2CC3CN(c4nc(C)cc(C)n4)CC3C2)c1 (centres unmarked) [Example 343, (5-(4,6-Dimethylpyrimidin-2-yl)hexahydropyrrolo[3,4-c]pyrrol-2(1H)-yl)(4-fluoro-2-(4-methylpyridin-2-yl)phenyl)methanone]
1500 | – | CCCOc1cccnc1C(=O)N1CC2CN(c3nc(C)cc(C)n3)CC2C1 (centres unmarked) [Example 344, (5-(4,6-dimethylpyrimidin-2-yl)hexahydropyrrolo[3,4-c]pyrrol-2(1H)-yl)(3-propoxypyridin-2-yl)methanone]
25 | – | Cc1cc(C)nc(N2CC3CN(C(=O)c4ccc(F)cc4-c4ncccc4F)CC3C2)n1 (centres unmarked) [Example 346, (5-(4,6-Dimethylpyrimidin-2-yl)hexahydropyrrolo[3,4-c]pyrrol-2(1H)-yl)(4-fluoro-2-(3-fluoropyridin-2-yl)phenyl)methanone]
3100 | – | CCCOc1cccnc1C(=O)N1CC2CN(c3cnc4ccccc4n3)CC2C1 (centres unmarked) [Example 347, (3-Propoxypyridin-2-yl)(5-(quinoxalin-2-yl)hexahydropyrrolo[3,4-c]pyrrol-2(1H)-yl)methanone]
10000 | – | COc1cccc(OC)c1C(=O)N1CC2CN(c3ccc(C(F)(F)F)cn3)CC2C1 (centres unmarked) [Example 349, 2-[(2,6-Dimethoxyphenyl)carbonyl]-5-[5-(trifluoromethyl)pyridin-2-yl]octahydropyrrolo[3,4-c]pyrrole]
1200 | – | COc1cccc(OC)c1C(=O)N1CC2CN(c3nc(C)cc(C)n3)CC2C1 (centres unmarked) [Example 351, (2,6-Dimethoxyphenyl)(5-(4,6-dimethylpyrimidin-2-yl)hexahydropyrrolo[3,4-c]pyrrol-2(1H)-yl)methanone]
10000 | – | Cc1cc(C)nc(N2CC3CN(C(=O)c4occc4C)CC3C2)n1 (centres unmarked) [Example 352, (5-(4,6-Dimethylpyrimidin-2-yl)hexahydropyrrolo[3,4-c]pyrrol-2(1H)-yl)(3-methylfuran-2-yl)methanone]
10000 | – | Cc1ccoc1C(=O)N1CC2CN(c3ccc(C(F)(F)F)cn3)CC2C1 (centres unmarked) [Example 353, 2-[(3-Methylfuran-2-yl)carbonyl]-5-[5-(trifluoromethyl)pyridin-2-yl]octahydropyrrolo[3,4-c]pyrrole]
10000 | – | Cc1ccoc1C(=O)N1CC2CN(c3cnc4ccccc4n3)CC2C1 (centres unmarked) [Example 355, (3-Methylfuran-2-yl)(5-(quinoxalin-2-yl)hexahydropyrrolo[3,4-c]pyrrol-2(1H)-yl)methanone]
230 | – | Cc1cc(C)nc(N2CC3CN(S(=O)(=O)c4ccccc4-c4ccccc4)CC3C2)n1 (centres unmarked) [Example 358, 2-([1,1′-Biphenyl]-2-ylsulfonyl)-5-(4,6-dimethylpyrimidin-2-yl)octahydropyrrolo[3,4-c]pyrrole]
180 | – | COc1ccccc1S(=O)(=O)N1CC2CN(c3nc(C)cc(C)n3)CC2C1 (centres unmarked) [Example 359, 2-(4,6-Dimethylpyrimidin-2-yl)-5-((2-methoxyphenyl)sulfonyl)octahydropyrrolo[3,4-c]pyrrole]
4400 | – | COc1ccccc1S(=O)(=O)N1CC2CN(c3ccc(C(F)(F)F)cn3)CC2C1 (centres unmarked) [Example 361, 2-((2-Methoxyphenyl)sulfonyl)-5-(5-(trifluoromethyl)pyridin-2-yl)octahydropyrrolo[3,4-c]pyrrole]
1800 | – | COc1ccccc1S(=O)(=O)N1CC2CN(c3cnc4ccccc4n3)CC2C1 (centres unmarked) [Example 362, 2-(5-((2-Methoxyphenyl)sulfonyl)hexahydropyrrolo[3,4-c]pyrrol-2(1H)-yl)quinoxaline]
23 | – | Cc1cc(C)nc(N2CC3CN(C(=O)c4ccc(F)cc4-c4ccccn4)CC3C2)n1 (centres unmarked) [Example 366, (5-(4,6-Dimethylpyrimidin-2-yl)hexahydropyrrolo[3,4-c]pyrrol-2(1H)-yl)(4-fluoro-2-(pyridin-2-yl)phenyl)methanone]
15 | – | Cc1cc(C)nc(N2CC3CN(C(=O)c4cccc(F)c4-c4ccccn4)CC3C2)n1 (centres unmarked) [Example 367, (5-(4,6-Dimethylpyrimidin-2-yl)hexahydropyrrolo[3,4-c]pyrrol-2(1H)-yl)(3-fluoro-2-(pyridin-2-yl)phenyl)methanone]
19 | – | Cc1cc(C)nc(N2CC3CN(C(=O)c4ccc(F)cc4-c4ncco4)CC3C2)n1 (centres unmarked) [Example 369, (5-(4,6-Dimethylpyrimidin-2-yl)hexahydropyrrolo[3,4-c]pyrrol-2(1H)-yl)(4-fluoro-2-(oxazol-2-yl)phenyl)methanone]
84 | – | Cc1cccc(-c2c(F)cccc2C(=O)N2CC3CN(c4nc(C)cc(C)n4)CC3C2)n1 (centres unmarked) [Example 370, (5-(4,6-Dimethylpyrimidin-2-yl)hexahydropyrrolo[3,4-c]pyrrol-2(1H)-yl)(3-fluoro-2-(6-methylpyridin-2-yl)phenyl)methanone]
